Experiments:
Homo sapiens [1] = organism: Homo sapiens; assay: In vitro inhibition of ADP-induced aggregation of human PRP in the presence of pig aortal microsomes (PAM).; assay type: functional
Mus musculus [2] = assay: Protection against mortality in pulmonary thromboembolism model in mice at 1 mg/kg; assay type: functional
Phosphodiesterase 3 = Phosphodiesterase 3 (Homo sapiens, UniProt Q14432+Q13370); assay: Inhibition of human blood platelet c-AMP phosphodiesterase
Homo sapiens [3] = organism: Homo sapiens; assay: Inhibition of ADP-induced aggregation of human PRP in the absence of pig aortal microsomes (PAM); assay type: functional
Mus musculus [4] = assay: Protection against mortality in pulmonary thromboembolism model in mice at 3 mg/kg; assay type: functional
Thromboxane-A synthase [5] = molecular target: T1, Thromboxane-A synthase (Homo sapiens, UniProt P24557); assay: Compound was evaluated for the inhibition of human blood platelet, thromboxane A2 synthase
T1 sequence (P24557 whole entry): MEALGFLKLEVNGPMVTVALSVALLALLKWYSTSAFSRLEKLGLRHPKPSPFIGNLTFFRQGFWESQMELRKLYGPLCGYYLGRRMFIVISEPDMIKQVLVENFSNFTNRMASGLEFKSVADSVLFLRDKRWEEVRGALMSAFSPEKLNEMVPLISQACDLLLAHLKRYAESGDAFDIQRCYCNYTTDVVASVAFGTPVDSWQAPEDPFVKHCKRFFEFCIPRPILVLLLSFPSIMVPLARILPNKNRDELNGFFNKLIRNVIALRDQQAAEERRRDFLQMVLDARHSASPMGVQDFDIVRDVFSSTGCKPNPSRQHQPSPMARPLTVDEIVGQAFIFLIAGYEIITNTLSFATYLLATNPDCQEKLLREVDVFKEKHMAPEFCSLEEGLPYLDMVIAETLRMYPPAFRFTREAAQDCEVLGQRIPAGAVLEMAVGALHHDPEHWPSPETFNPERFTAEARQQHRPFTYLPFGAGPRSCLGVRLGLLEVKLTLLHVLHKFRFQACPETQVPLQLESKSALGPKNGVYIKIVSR

Mus musculus [6] = assay: Protection against mortality in pulmonary thromboembolism model in mice at 9 mg/kg; assay type: functional
Homo sapiens [7] = organism: Homo sapiens; assay: (§1) Ratio of IC50(PDE)/IC50(TXA2)
Homo sapiens [8] = organism: Homo sapiens; assay: Inhibition of [14C]arachidonic acid induced platelet TXB2 formation at 0.1 uM (Control TXB2 = 14.9+/-2.5)
Mus musculus [9] = assay: Protection against mortality in pulmonary thromboembolism model in mice at 10 mg/kg; assay type: functional
Homo sapiens [10] = organism: Homo sapiens; assay: Inhibition of [14C]arachidonic acid induced 6-keto-PGF1-alpha formation at 10 uM (Control 6-keto-PGF1-alpha = 1.45+/-0.6)
Rattus norvegicus [11] = assay: (§2) Antihypertensive activity in conscious spontaneously hypertensive rat (SHR), percent change in Systolic blood pressure (SBP) after 1 hr; assay type: functional
Homo sapiens [12] = organism: Homo sapiens; assay: Inhibition of [14C]arachidonic acid induced platelet aggregation at 10 uM (Control TXB2 = 14.9+/-2.5); assay type: functional
Homo sapiens [13] = organism: Homo sapiens; assay: Inhibition of [14C]arachidonic acid induced platelet aggregation at 1 uM (Control TXB2 = 14.9+/-2.5); assay type: functional
Rattus norvegicus [14] = assay: Antihypertensive activity in conscious spontaneously hypertensive rat (SHR), percent change in heart rate (beats/min) after 2 hr; assay type: functional
Rattus norvegicus [15] = assay: Ex vivo inhibition of blood platelet aggregation in rats at 50 mg/kg peroral dose after 3 hr; assay type: functional; conditions: route oral
Homo sapiens [16] = organism: Homo sapiens; assay: Ratio of IC50(w/oPAM)/IC50(w/PAM); assay type: functional
Rattus norvegicus [17] = assay: Ex vivo inhibition of blood platelet aggregation in rats at 50 mg/kg peroral dose after 8 hr; assay type: functional; conditions: route oral
Rattus norvegicus [18] = assay: Effect of TXA2 synthase inhibitor (compound) on serum TXB2 level in rats at 50 mg/kg po, after 2 hr; assay type: functional
Rattus norvegicus [19] = assay: Ex vivo inhibition of blood platelet aggregation in rats at 50 mg/kg peroral dose after 5 hr; assay type: functional; conditions: route oral
Mus musculus [20] = assay: Protection against mortality in pulmonary thromboembolism model in mice at 30 mg/kg; assay type: functional
Homo sapiens [21] = organism: Homo sapiens; assay: as §1; assay type: functional
Homo sapiens [22] = organism: Homo sapiens; assay: Inhibition of [14C]arachidonic acid conversion to 6-keto-PGF1-alpha in platelets at 1 uM (Control 6-keto-PGF1-alpha = 1.45+/-0.6)
Rattus norvegicus [23] = assay: Antihypertensive activity in conscious spontaneously hypertensive rat (SHR), percent change in Systolic blood pressure (SBP) after 2 hr; assay type: functional
Rattus norvegicus [24] = assay: Antihypertensive activity in conscious spontaneously hypertensive rat (SHR), percent change in heart rate (beats/min) after 1 hr; assay type: functional
Rattus norvegicus [25] = assay: Antihypertensive activity in conscious spontaneously hypertensive rat (SHR), percent change in Systolic blood pressure (SBP) after 4 hr; assay type: functional
Rattus norvegicus [26] = assay: Antihypertensive activity in conscious spontaneously hypertensive rat (SHR), percent change in heart rate (beats/min) after 4 hr; assay type: functional
Mus musculus [27] = organism: Mus musculus; assay: Time course of protection against mortality in a pulmonary thromboembolism model in mice after -7h; assay type: functional
Mus musculus [28] = organism: Mus musculus; assay: Time course of protection against mortality in a pulmonary thromboembolism model in mice after -3h; assay type: functional
Homo sapiens [29] = organism: Homo sapiens; assay: Inhibition of ADP-induced platelet aggregation of human PRP in the presence of pig aortal microsomes (PAM); assay type: functional
Mus musculus [30] = organism: Mus musculus; assay: Time course of protection against mortality in a pulmonary thromboembolism model in mice after -1h; assay type: functional
Mus musculus [31] = assay: Protection against mortality in pulmonary thromboembolism model in mice at 12 mg/kg; assay type: functional
Homo sapiens [32] = organism: Homo sapiens; assay: Inhibition of ADP-induced platelet aggregation of human PRP without pig aortal microsomes (PAM); assay type: functional
Mus musculus [33] = organism: Mus musculus; assay: Time course of protection against mortality in a pulmonary thromboembolism model in mice after -5h; assay type: functional
Thromboxane-A synthase [34] = molecular target: T1, Thromboxane-A synthase; assay: Compound was evaluated for the inhibition of human blood platelet thromboxane A2 synthase
Rattus norvegicus [35] = assay: Antihypertensive activity in conscious spontaneously hypertensive rat (SHR), percent change in Systolic blood pressure (SBP) after 4 hr at 10 mg/kg peroral dose; assay type: functional; conditions: route oral
Rattus norvegicus [36] = assay: Antihypertensive activity in conscious spontaneously hypertensive rat (SHR), percent change in Systolic blood pressure (SBP) after 2 hr at 10 mg/kg peroral dose; assay type: functional; conditions: route oral
Rattus norvegicus [37] = assay: Antihypertensive activity in conscious spontaneously hypertensive rat (SHR), percent change in heart rate (beats/min) after 2 hr at 10 mg/kg peroral dose; assay type: functional; conditions: route oral
Rattus norvegicus [38] = assay: as §2; assay type: functional; parameters: concentration or dose not given beside the values
Rattus norvegicus [39] = assay: Antihypertensive activity in conscious spontaneously hypertensive rat (SHR), percent change in heart rate (beats/min) after 1 hr at 10 mg/kg peroral dose; assay type: functional; conditions: route oral
Rattus norvegicus [40] = assay: Antihypertensive activity in conscious spontaneously hypertensive rat (SHR), percent change in heart rate (beats/min) after 4 hr at 10 mg/kg peroral dose; assay type: functional; conditions: route oral

Structure (SMILES): O=C1CCc2cc(C(Cn3ccnc3)c3ccccc3)ccc2N1 (stereo unspecified)
- IC50 (Homo sapiens [1]): 200 µM

Structure (SMILES): O=C1CCc2cc(C(c3ccccc3)n3ccnc3)ccc2N1 (stereo unspecified)
- survival at 1 mg/kg (Mus musculus [2]): 20%
- IC50 (Phosphodiesterase 3): 40 µM
- IC50 (Homo sapiens [1]): 0.35 µM
- IC50 (Homo sapiens [3]): 44 µM
- survival at 3 mg/kg (Mus musculus [4]): 20%
- IC50 (Thromboxane-A synthase [5]): 0.35 µM
- survival at 9 mg/kg (Mus musculus [6]): 40%
- Ratio (Homo sapiens [7]): 114

Structure (SMILES): CC(Cc1cccnc1)c1ccc2c(c1)CCC(=O)N2 (stereo unspecified)
- IC50 (Homo sapiens [1]): 35 µM

Structure (SMILES): O=C1CCc2cc(-c3cccnc3)ccc2N1
- TXB2 level at 0.1 µM (Homo sapiens [8]): 21.1%
- survival at 10 mg/kg (Mus musculus [9]): 40%
- 6-keto-PGF1α level at 10 µM (Homo sapiens [10]): 31.9%
- survival at 1 mg/kg (Mus musculus [2]): 20%
- IC50 (Phosphodiesterase 3): 4.4 µM
- Change systolic BP (Rattus norvegicus [11]): -42%
- TXB2 level at 10 µM (Homo sapiens [12]): 4.5%
- TXB2 level at 1 µM (Homo sapiens [13]): 14.8%
- IC50 (Homo sapiens [1]): 0.54 µM
- Change in heart rate (Rattus norvegicus [14]): 18%
- IC50 (Homo sapiens [3]): 27 µM
- inhibition in vivo at 50 mg/kg (Rattus norvegicus [15]): 94.7%
- survival at 3 mg/kg (Mus musculus [4]): 40%
- Ratio (Homo sapiens [16]): 50
- IC50 (Thromboxane-A synthase [5]): 0.54 µM
- inhibition in vivo at 50 mg/kg (Rattus norvegicus [17]): 4.7%
- inhibition in vivo at 50 mg/kg (Rattus norvegicus [18]): 94%
- inhibition in vivo at 50 mg/kg (Rattus norvegicus [19]): 53.2%
- survival at 30 mg/kg (Mus musculus [20]): 50%
- Ratio (Homo sapiens [21]): 8.1
- 6-keto-PGF1α level at 1 µM (Homo sapiens [22]): 7.7%
- Change systolic BP (Rattus norvegicus [23]): -28%
- Change in heart rate (Rattus norvegicus [24]): 13%
- Change systolic BP (Rattus norvegicus [25]): -22%
- Change in heart rate (Rattus norvegicus [26]): 13%

Structure (SMILES): O=C1CCc2cc(C(c3ccccc3)c3cccnc3)ccc2N1 (stereo unspecified)
- IC50 (Homo sapiens [1]): 3 µM
- IC50 (Homo sapiens [3]): 11 µM

Structure (SMILES): Cc1c(Cn2ccnc2)c2ccccc2n1CCC(=O)O [DAZMEGREL]
- survival at 1 mg/kg (Mus musculus [2]): 30%
- Survival (Mus musculus [27]): 10%
- Survival (Mus musculus [28]): 20%
- IC50 (Homo sapiens [29]): 2 µM
- survival at 3 mg/kg (Mus musculus [4]): 30%
- Survival (Mus musculus [30]): 11%
- survival at 12 mg/kg (Mus musculus [31]): 60%
- survival at 30 mg/kg (Mus musculus [20]): 20%
- IC50 (Homo sapiens [32]): 97 µM
- survival at 9 mg/kg (Mus musculus [6]): 50%
- Survival (Mus musculus [33]): 0%

Structure (SMILES): CCCCCC(Cn1ccnc1)c1ccc2c(c1)CCC(=O)N2 (stereo unspecified)
- IC50 (Phosphodiesterase 3): 14 µM
- IC50 (Homo sapiens [1]): 25 µM
- IC50 (Thromboxane-A synthase [34]): 25 µM

Structure (SMILES): O=C1CCc2cc(C#Cc3cccnc3)ccc2N1
- IC50 (Homo sapiens [1]): 11 µM
- IC50 (Homo sapiens [3]): 240 µM
- Ratio (Homo sapiens [16]): 22
- Change systolic BP (Rattus norvegicus [35]): -5%
- Change systolic BP (Rattus norvegicus [36]): -6%
- Change in heart rate (Rattus norvegicus [37]): 15%
- Change systolic BP (Rattus norvegicus [38]): -13%
- Change in heart rate (Rattus norvegicus [39]): 4%
- Change in heart rate (Rattus norvegicus [40]): 22%

Structure (SMILES): Oc1ccc2cc(/C=C/n3ccnc3)ccc2n1
- IC50 (Phosphodiesterase 3): 4 µM
- IC50 (Homo sapiens [1]): 0.38 µM
- IC50 (Homo sapiens [3]): 2.8 µM
- Ratio (Homo sapiens [16]): 7.4
- Ratio (Homo sapiens [21]): 10.5

Structure (SMILES): O=C1CCc2cc(CCc3cccnc3)ccc2N1
- IC50 (Homo sapiens [1]): 8.5 µM

Structure (SMILES): O=C1CCc2cc(C#CCn3ccnc3)ccc2N1
- Change systolic BP (Rattus norvegicus [35]): -15%
- Change systolic BP (Rattus norvegicus [36]): -5%
- Change in heart rate (Rattus norvegicus [37]): 11%
- Change systolic BP (Rattus norvegicus [38]): -3%
- Change in heart rate (Rattus norvegicus [39]): 9%
- Change in heart rate (Rattus norvegicus [40]): 11%

Structure (SMILES): O=c1ccc2cc(/C=C/n3ccnc3)ccc2[nH]1
- IC50 (Thromboxane-A synthase [5]): 0.38 µM

Structure (SMILES): C/C(=C\n1ccnc1)c1ccc2c(c1)CCC(=O)N2
- IC50 (Homo sapiens [1]): 1.6 µM
- IC50 (Homo sapiens [3]): 13 µM
- Ratio (Homo sapiens [16]): 8.1

Reference: ChEMBL document CHEMBL1126161, “3,4-Dihydroquinolin-2(1H)-ones as combined inhibitors of thromboxane A2 synthase and cAMP phosphodiesterase” (J Med Chem, 1992)
